Data reported in the NIST ThermoML archive (doi:10.1021/je060271a).
± gives the expanded uncertainty stated by the source.

Details: 303.15 K, Liquid, Vibrating tube method

CCCCC(=O)OCC(COC(=O)CCCC)(COC(=O)CCCC)COC(=O)CCCC [pentaerythritol tetrapentanoate]
Details | mass density [kg/m3]
1387.7 kPa | 1011.7 ± 1.2
1391.5 kPa | 1011.7 ± 1.2
1395 kPa | 1011.6 ± 1.2
1398.3 kPa | 1011.8 ± 1.2
1401.8 kPa | 1011.7 ± 1.2
1405.8 kPa | 1011.7 ± 1.2
1409.2 kPa | 1011.8 ± 1.2
1413.1 kPa | 1011.7 ± 1.2
1416.4 kPa | 1011.8 ± 1.2
1419.7 kPa | 1011.8 ± 1.2
1423.1 kPa | 1011.7 ± 1.2
1427 kPa | 1011.8 ± 1.2
1430.8 kPa | 1011.8 ± 1.2
1434.2 kPa | 1011.9 ± 1.2
1437.9 kPa | 1011.6 ± 1.2
1441.9 kPa | 1011.8 ± 1.2
1445.5 kPa | 1011.7 ± 1.2
1449 kPa | 1011.8 ± 1.2
1453.3 kPa | 1011.8 ± 1.2
1456.6 kPa | 1011.8 ± 1.2
1460.5 kPa | 1011.7 ± 1.2
1464.6 kPa | 1011.9 ± 1.2
1467.9 kPa | 1011.8 ± 1.2
1471.8 kPa | 1011.8 ± 1.2
1475.9 kPa | 1011.8 ± 1.2
1479.9 kPa | 1011.8 ± 1.2
1483.5 kPa | 1011.8 ± 1.2
1487 kPa | 1011.7 ± 1.2
1491.7 kPa | 1011.8 ± 1.2
1495.5 kPa | 1011.9 ± 1.2
1499.2 kPa | 1011.8 ± 1.2
1503.7 kPa | 1011.9 ± 1.2
1507.5 kPa | 1011.7 ± 1.2
1511.2 kPa | 1011.8 ± 1.2
1515 kPa | 1011.7 ± 1.2
1519.8 kPa | 1011.7 ± 1.2
1523.7 kPa | 1011.8 ± 1.2
1527.3 kPa | 1011.8 ± 1.2
1532.2 kPa | 1011.8 ± 1.2
1536 kPa | 1011.7 ± 1.2
1540 kPa | 1011.8 ± 1.2
1544.5 kPa | 1011.8 ± 1.2
1548.8 kPa | 1011.7 ± 1.2
1552.7 kPa | 1011.8 ± 1.2
1556.3 kPa | 1011.9 ± 1.2
1561.3 kPa | 1011.9 ± 1.2
1565.3 kPa | 1011.8 ± 1.2
1569.5 kPa | 1011.8 ± 1.2
1573.5 kPa | 1011.9 ± 1.2
1577.5 kPa | 1011.9 ± 1.2
1581.8 kPa | 1011.9 ± 1.2
1585.8 kPa | 1011.8 ± 1.2
1590.8 kPa | 1011.9 ± 1.2
1595 kPa | 1011.8 ± 1.2
1599 kPa | 1011.9 ± 1.2
1604.2 kPa | 1011.9 ± 1.2
1608.2 kPa | 1011.9 ± 1.2
1612.5 kPa | 1011.9 ± 1.2
1617.8 kPa | 1012 ± 1.2
1621.9 kPa | 1011.9 ± 1.2
1626.6 kPa | 1011.9 ± 1.2
1630.8 kPa | 1011.8 ± 1.2
1635 kPa | 1011.9 ± 1.2
1640 kPa | 1012 ± 1.2
1644.2 kPa | 1012 ± 1.2
1648.7 kPa | 1011.8 ± 1.2
1653.9 kPa | 1012.1 ± 1.2
1658.9 kPa | 1011.8 ± 1.2
1663.4 kPa | 1011.9 ± 1.2
1668.6 kPa | 1011.9 ± 1.2
1673.2 kPa | 1011.8 ± 1.2
1677.7 kPa | 1011.8 ± 1.2
1683.2 kPa | 1011.9 ± 1.2
1687.7 kPa | 1012.1 ± 1.2
1692.6 kPa | 1012 ± 1.2
1697.3 kPa | 1011.9 ± 1.2
1703 kPa | 1011.9 ± 1.2
1707.7 kPa | 1012 ± 1.2
1712 kPa | 1011.9 ± 1.2
1717.8 kPa | 1011.9 ± 1.2
1722.5 kPa | 1011.9 ± 1.2
1727.3 kPa | 1012 ± 1.2
1732.9 kPa | 1011.9 ± 1.2
1737.7 kPa | 1012.1 ± 1.2
1742.9 kPa | 1012.1 ± 1.2
1747.8 kPa | 1012 ± 1.2
1753.7 kPa | 1011.9 ± 1.2
1758.4 kPa | 1012 ± 1.2
1763.8 kPa | 1012 ± 1.2
1768.6 kPa | 1012 ± 1.2
1774.7 kPa | 1011.9 ± 1.2
1779.9 kPa | 1012.1 ± 1.2
1784.9 kPa | 1012 ± 1.2
1791 kPa | 1011.9 ± 1.2
1796 kPa | 1012 ± 1.2
1800.9 kPa | 1012.1 ± 1.2
1807.3 kPa | 1012 ± 1.2
1812.5 kPa | 1012 ± 1.2
1817.6 kPa | 1012.1 ± 1.2
1824 kPa | 1011.9 ± 1.2
1829.5 kPa | 1012.1 ± 1.2
1834.9 kPa | 1012 ± 1.2
1840.1 kPa | 1012 ± 1.2
1846.6 kPa | 1012 ± 1.2
1852.1 kPa | 1012 ± 1.2
1857.5 kPa | 1012 ± 1.2
1862.9 kPa | 1012 ± 1.2
1869.5 kPa | 1012.1 ± 1.2
1874.8 kPa | 1012.1 ± 1.2
1881.8 kPa | 1012 ± 1.2
1887 kPa | 1012.1 ± 1.2
1892.9 kPa | 1012 ± 1.2
1898.6 kPa | 1012.1 ± 1.2
1904.4 kPa | 1012 ± 1.2
1911.3 kPa | 1012.1 ± 1.2
1916.8 kPa | 1012.1 ± 1.2
1923.1 kPa | 1012.1 ± 1.2
1930 kPa | 1012 ± 1.2
1935.6 kPa | 1012.1 ± 1.2
1941.3 kPa | 1011.9 ± 1.2
1947.2 kPa | 1012.1 ± 1.2
1954.3 kPa | 1012 ± 1.2
1960.6 kPa | 1012 ± 1.2
1966.7 kPa | 1012.1 ± 1.2
1972.9 kPa | 1012.1 ± 1.2
1980.4 kPa | 1012.1 ± 1.2
1986.3 kPa | 1012.1 ± 1.2
1992.3 kPa | 1012.1 ± 1.2
1999.8 kPa | 1012.1 ± 1.2
2006.4 kPa | 1012.1 ± 1.2
2012.5 kPa | 1012.1 ± 1.2
2018.9 kPa | 1012.1 ± 1.2
2026.4 kPa | 1012.1 ± 1.2
2033.5 kPa | 1012.1 ± 1.2
2039.7 kPa | 1012.1 ± 1.2
2046.1 kPa | 1012.1 ± 1.2
2053.9 kPa | 1012.3 ± 1.2
2060.5 kPa | 1012.1 ± 1.2
2068.3 kPa | 1012.2 ± 1.2
2074.9 kPa | 1012.1 ± 1.2
2081.9 kPa | 1012.2 ± 1.2
2090 kPa | 1012.3 ± 1.2
2096.8 kPa | 1012.1 ± 1.2
2103.5 kPa | 1012.2 ± 1.2
2109.8 kPa | 1012.1 ± 1.2
2118.5 kPa | 1012.2 ± 1.2
2125.2 kPa | 1012.1 ± 1.2
2132.5 kPa | 1012.3 ± 1.2
2140.9 kPa | 1012.4 ± 1.2
2147.8 kPa | 1012.2 ± 1.2
2155.4 kPa | 1012.3 ± 1.2
2162.7 kPa | 1012.2 ± 1.2
2170 kPa | 1012.3 ± 1.2
2178.5 kPa | 1012.3 ± 1.2
2185.3 kPa | 1012.3 ± 1.2
2192.6 kPa | 1012.2 ± 1.2
2201.3 kPa | 1012.3 ± 1.2
2208.7 kPa | 1012.3 ± 1.2
2216.2 kPa | 1012.1 ± 1.2
2223.6 kPa | 1012.2 ± 1.2
